System: RA patients
Assay: Total cholesterol determination, Study 2 (RA patients, monotherapy with Compound 1)
Format: in vivo, human
From the text: Randomized, double-blind, placebo-controlled, multicenter, phase IIb dose finding study of Compound 1 (dosed as a [Compound 1:HCl:3H2O]) administered for 24 weeks as monotherapy to subjects with moderately to severely active rheumatoid arthritis who have an inadequate response to methotrexate alone
Double-blind, placebo-controlled, monotherapy study in subjects with moderately to severely active RA who have an inadequate response to methotrexate (MTX) (oral or parenteral).
280 subjects randomized to one of 3 doses of Compound 1 (dosed as a [Compound 1:HCl:3H2O]) or to placebo, given once daily (q.d.).
Twelve weeks of treatment with Compound 1 (dosed as a [Compound 1:HCl:3H2O]) at 50 mg, 100 mg, or 200 mg q.d.; or placebo. At Week 12, all subjects on placebo and the subjects on the 50 mg dose who have not achieved 20% improvement in swollen joint count (SJC66) and tender joint count (TJC68) will be assigned to 100 mg q.d. in a blinded fashion and will continue treatment until Week 24. Subjects in the other groups will maintain their randomized treatment until Week 24.
This method is based on the determination of Δ^4 cholestenone after enzymatic cleavage of the cholesterol ester by cholesterol esterase, conversion of cholesterol by cholesterol oxidase, and subsequent measurement by the Trinder reaction of the hydrogen peroxide formed (Allain et al., 1974).
Cholesterol esters are cleaved by the action of cholesterol esterase to yield free cholesterol and fatty acids. Cholesterol oxidase then catalyzes the oxidation of cholesterol to cholest-4-en-3-one and hydrogen peroxide. In the presence of peroxidase, the hydrogen peroxide formed effects the oxidative coupling of phenol and 4-aminophenazone to form a red quinone-imine dye. The color intensity of the dye formed is directly proportional to the cholesterol concentration. It is determined by measuring the increase in absorbance.
Human serum and plasma samples cholesterol determination was done on a Roche/Hitachi Cobas c 701/702 system which automatically calculate the analyte concentration of each sample.

[1] = placebo switching to 100 mg q.d. at week 12, week 16
[2] = placebo switching to 100 mg q.d. at week 12, week 20
[3] = placebo switching to 100 mg q.d. at week 12, week 24

## O=C(Nc1nc2cccc(-c3ccc(CN4CCS(=O)(=O)CC4)cc3)n2n1)C1CC1 [Compound 1, cyclopropanecarboxylic acid {5-[4-(1,1-dioxo-thiomorpholin-4-ylmethyl)-phenyl]-[1,2,4]triazolo[1,5-a]pyridin-2yl}-amide]
200 mg q.d., week 4
  [total cholesterol] Mean percentage CFB - 24 weeks results: 9.35%
  [total cholesterol] Median percentage CFB - 24 weeks results: 7.39%
200 mg q.d., week 8
  [total cholesterol] Mean percentage CFB - 12 weeks results: 9.62%
  [total cholesterol] Mean percentage CFB - 24 weeks results: 9.62%
  [total cholesterol] Median percentage CFB - 24 weeks results: 9.01%
200 mg q.d., week 12
  [total cholesterol] Mean percentage CFB - 12 weeks results: 13.12%
  [total cholesterol] Mean percentage CFB - 24 weeks results: 13.12%
  [total cholesterol] Median percentage CFB - 24 weeks results: 11.96%
200 mg q.d., week 16
  [total cholesterol] Mean percentage CFB - 24 weeks results: 11.40%
  [total cholesterol] Median percentage CFB - 24 weeks results: 8.36%
200 mg q.d., week 20
  [total cholesterol] Mean percentage CFB - 24 weeks results: 11.67%
  [total cholesterol] Median percentage CFB - 24 weeks results: 11.04%
200 mg q.d., week 24
  [total cholesterol] Mean percentage CFB - 24 weeks results: 12.83%
  [total cholesterol] Median percentage CFB - 24 weeks results: 9.81%
Study 2 12 weeks results, 50 mg q.d., week 1
  [Total cholesterol] Median CFB: 0.100 mmol/L
Study 2 12 weeks results, 50 mg q.d., week 2
  [Total cholesterol] Median CFB: 0.000 mmol/L
Study 2 12 weeks results, 50 mg q.d., week 4
  [Total cholesterol] Median CFB: 0.000 mmol/L
Study 2 12 weeks results, 50 mg q.d., week 8
  [Total cholesterol] Median CFB: 0.250 mmol/L
Study 2 12 weeks results, 50 mg q.d., week 12
  [Total cholesterol] Median CFB: 0.140 mmol/L
Study 2 12 weeks results, 100 mg q.d., week 1
  [Total cholesterol] Median CFB: 0.100 mmol/L
Study 2 12 weeks results, 100 mg q.d., week 2
  [Total cholesterol] Median CFB: 0.140 mmol/L
Study 2 12 weeks results, 100 mg q.d., week 4
  [Total cholesterol] Median CFB: 0.265 mmol/L
Study 2 12 weeks results, 100 mg q.d., week 8
  [Total cholesterol] Median CFB: 0.250 mmol/L
Study 2 12 weeks results, 100 mg q.d., week 12
  [Total cholesterol] Median CFB: 0.350 mmol/L
Study 2 12 weeks results, 200 mg q.d., week 1
  [Total cholesterol] Median CFB: 0.260 mmol/L
Study 2 12 weeks results, 200 mg q.d., week 2
  [Total cholesterol] Median CFB: 0.330 mmol/L
Study 2 12 weeks results, 200 mg q.d., week 4
  [Total cholesterol] Median CFB: 0.390 mmol/L
Study 2 12 weeks results, 200 mg q.d., week 8
  [Total cholesterol] Median CFB: 0.400 mmol/L
Study 2 12 weeks results, 200 mg q.d., week 12
  [Total cholesterol] Median CFB: 0.560 mmol/L
Study 2 24 weeks results, 50 mg q.d. non responders switching to 100 mg q.d. at week 12, week 1
  [Total cholesterol] Median CFB: 0.150 mmol/L
Study 2 24 weeks results, 50 mg q.d. non responders switching to 100 mg q.d. at week 12, week 2
  [Total cholesterol] Median CFB: 0.100 mmol/L
Study 2 24 weeks results, 50 mg q.d. non responders switching to 100 mg q.d. at week 12, week 4
  [Total cholesterol] Median CFB: 0.350 mmol/L
Study 2 24 weeks results, 50 mg q.d. non responders switching to 100 mg q.d. at week 12, week 8
  [Total cholesterol] Median CFB: 0.140 mmol/L
Study 2 24 weeks results, 50 mg q.d. non responders switching to 100 mg q.d. at week 12, week 12
  [Total cholesterol] Median CFB: 0.330 mmol/L
Study 2 24 weeks results, 50 mg q.d. non responders switching to 100 mg q.d. at week 12, week 16
  [Total cholesterol] Median CFB: 0.540 mmol/L
Study 2 24 weeks results, 50 mg q.d. non responders switching to 100 mg q.d. at week 12, week 20
  [Total cholesterol] Median CFB: 0.280 mmol/L
Study 2 24 weeks results, 50 mg q.d. non responders switching to 100 mg q.d. at week 12, week 24
  [Total cholesterol] Median CFB: 0.550 mmol/L
Study 2 24 weeks results, 50 mg q.d. responders, week 1
  [Total cholesterol] Median CFB: 0.020 mmol/L
Study 2 24 weeks results, 50 mg q.d. responders, week 2
  [Total cholesterol] Median CFB: -0.040 mmol/L
Study 2 24 weeks results, 50 mg q.d. responders, week 4
  [Total cholesterol] Median CFB: -0.030 mmol/L
Study 2 24 weeks results, 50 mg q.d. responders, week 8
  [Total cholesterol] Median CFB: 0.350 mmol/L
Study 2 24 weeks results, 50 mg q.d. responders, week 12
  [Total cholesterol] Median CFB: 0.060 mmol/L
Study 2 24 weeks results, 50 mg q.d. responders, week 16
  [Total cholesterol] Median CFB: 0.165 mmol/L
Study 2 24 weeks results, 50 mg q.d. responders, week 20
  [Total cholesterol] Median CFB: 0.215 mmol/L
Study 2 24 weeks results, 50 mg q.d. responders, week 24
  [Total cholesterol] Median CFB: 0.250 mmol/L
Study 2 24 weeks results, 100 mg q.d., week 1
  [Total cholesterol] Median CFB: 0.100 mmol/L
Study 2 24 weeks results, 100 mg q.d., week 2
  [Total cholesterol] Median CFB: 0.140 mmol/L
Study 2 24 weeks results, 100 mg q.d., week 4
  [Total cholesterol] Median CFB: 0.265 mmol/L
Study 2 24 weeks results, 100 mg q.d., week 8
  [Total cholesterol] Median CFB: 0.250 mmol/L
Study 2 24 weeks results, 100 mg q.d., week 12
  [Total cholesterol] Median CFB: 0.350 mmol/L
Study 2 24 weeks results, 100 mg q.d., week 16
  [Total cholesterol] Median CFB: 0.400 mmol/L
Study 2 24 weeks results, 100 mg q.d., week 20
  [Total cholesterol] Median CFB: 0.400 mmol/L
Study 2 24 weeks results, 100 mg q.d., week 24
  [Total cholesterol] Median CFB: 0.445 mmol/L
Study 2 24 weeks results, 200 mg q.d., week 1
  [Total cholesterol] Median CFB: 0.260 mmol/L
Study 2 24 weeks results, 200 mg q.d., week 2
  [Total cholesterol] Median CFB: 0.330 mmol/L
Study 2 24 weeks results, 200 mg q.d., week 4
  [Total cholesterol] Median CFB: 0.390 mmol/L
Study 2 24 weeks results, 200 mg q.d., week 8
  [Total cholesterol] Median CFB: 0.400 mmol/L
Study 2 24 weeks results, 200 mg q.d., week 12
  [Total cholesterol] Median CFB: 0.560 mmol/L
Study 2 24 weeks results, 200 mg q.d., week 16
  [Total cholesterol] Median CFB: 0.410 mmol/L
Study 2 24 weeks results, 200 mg q.d., week 20
  [Total cholesterol] Median CFB: 0.490 mmol/L
Study 2 24 weeks results, 200 mg q.d., week 24
  [Total cholesterol] Median CFB: 0.565 mmol/L
Study 2 24 weeks results, placebo switching to 100 mg q.d. at week 12, week 16
  [Total cholesterol] Median CFB: 0.200 mmol/L
Study 2 24 weeks results, placebo switching to 100 mg q.d. at week 12, week 20
  [Total cholesterol] Median CFB: 0.220 mmol/L
Study 2 24 weeks results, placebo switching to 100 mg q.d. at week 12, week 24
  [Total cholesterol] Median CFB: 0.300 mmol/L
[1]
  [total cholesterol] Mean percentage CFB - 24 weeks results: 5.14%
  [total cholesterol] Median percentage CFB - 24 weeks results: 3.87%
[2]
  [total cholesterol] Mean percentage CFB - 24 weeks results: 7.27%
  [total cholesterol] Median percentage CFB - 24 weeks results: 5.09%
[3]
  [total cholesterol] Mean percentage CFB - 24 weeks results: 6.98%
  [total cholesterol] Median percentage CFB - 24 weeks results: 5.57%
